The results in this text go back to ChEMBL document CHEMBL4602602, “Structure-activity relationship (SAR) studies of synthetic glycogen synthase kinase-3β inhibitors: A critical review” (Eur J Med Chem, 2019).

SMILES strings stand for the structures. pEC50, pIC50: −log10 of the molar value.

The target in assay [1] is T1, Glycogen synthase kinase-3 beta (Homo sapiens, UniProt P49841). Description: Inhibition of Glycogen synthase kinase-3 beta (unknown origin).
A short description of assay [2]: Activation of GSK-3 in HEK293 cells assessed as induction in beta-catenin-LEF/TCF regulated reporter gene transcription. The format is cell-based. Particulars: Homo sapiens.
The test system of assay [3] is HEK293. In words: Activation of GSK-3 in HEK293 cells assessed as induction in beta-catenin-LEF/TCF regulated reporter gene transcription at 5 uM relative to control. The assay is classed as cell-based. The conditions noted are these: Homo sapiens.
The target in assay [4] is T1, Glycogen synthase kinase-3 beta. In words: Inhibition of Glycogen synthase kinase-3 beta (unknown origin) after 30 mins by Kinase-Glo assay. On the technique in general: In Kinase-Glo more light means more ATP remaining.
Assay [5] shares this target. Description: Inhibition of Glycogen synthase kinase-3 beta in human SH-SY5Y cells after 2 hrs by ELISA. The format is cell-based. On the technique in general: ELISA stands for enzyme-linked immunosorbent assay.
Assay [6] can be described thus: Inhibition of full length recombinant His-tagged human Glycogen synthase kinase-3 beta expressed in Baculovirus expression system.
Assay [7] has as its target T1, Glycogen synthase kinase-3 beta. Description: Inhibition of full length recombinant His-tagged human Glycogen synthase kinase-3 beta expressed in Baculovirus expression system.

T1 sequence (P49841 whole entry): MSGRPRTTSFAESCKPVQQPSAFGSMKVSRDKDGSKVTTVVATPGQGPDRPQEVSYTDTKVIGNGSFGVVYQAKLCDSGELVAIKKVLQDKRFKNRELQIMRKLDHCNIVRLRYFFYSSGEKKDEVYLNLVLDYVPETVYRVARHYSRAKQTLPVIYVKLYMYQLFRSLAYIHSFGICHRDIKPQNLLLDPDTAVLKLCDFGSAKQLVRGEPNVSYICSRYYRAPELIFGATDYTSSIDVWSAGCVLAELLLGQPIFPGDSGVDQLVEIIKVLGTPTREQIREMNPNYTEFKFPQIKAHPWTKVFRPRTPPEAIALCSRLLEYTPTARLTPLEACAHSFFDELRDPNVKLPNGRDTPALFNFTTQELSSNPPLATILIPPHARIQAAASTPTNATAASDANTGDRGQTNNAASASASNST

In the case of `FC(F)(F)c1nc2ccccc2n1Cc1nnc(SCc2cn(-c3cccnc3)nn2)o1`, the pIC50 (usually the IC50 on a negative log10 scale, so that one unit is a factor of ten) in assay [1] was 6.82.

The compound `O=C(CSc1nnc(Cn2c(C(F)(F)F)nc3ccccc32)o1)Nc1ccc(F)cc1` showed a negative logarithm of the IC50 (pIC50) in assay [1] of 6.70. `Cn1cc(C2=C(c3ccc(Cl)cc3Cl)C(=O)NC2=O)c2ccccc21` [SB-216763]: in assay [2], the pEC50 (as a rule, the negative decadic logarithm of the EC50, by convention in mol/L) was 5.44. In addition, the fold change (FC) in assay [3] was 2.5.

For the compound `COc1ccc(C2=C(Nc3ccc(C(=O)Nc4ccccc4)cc3)C(=O)NC2=O)cc1`, the pIC50 in assay [1] is 6.77. `Cc1ccc(-n2cc(CSC3=NC(c4ccccc4)CC(=O)N3C)nn2)cc1C` (stereo not given) gave a pIC50 in assay [4] of 7.09. In turn, `Cc1ccc2[nH]nc(C(=O)NCC3CCN(C(=O)Nc4ccccc4)CC3)c2c1` had a pIC50 in assay [1] of 6.19. In assay [4], `CN1C(=O)CC(c2ccccc2)N=C1SCc1cn(-c2ccccc2F)nn1` (stereo not given) showed a pIC50 of 6.91. For the compound `Fc1ccccc1-n1cc(CSc2nnc(Cn3c(C(F)(F)F)nc4ccccc43)o2)nn1`, the pIC50 in assay [1] is 6.57.

With `FC(F)(F)c1nc2ccccc2n1Cc1nnc(SCc2cn(-c3ccccc3)nn2)o1`, in assay [1], the pIC50 was 6.49.

`COc1ccc(-c2cc(=O)c3c(OC)c([C@H]4O[C@H](C(=O)O)[C@@H](O)[C@H](O)[C@H]4O)c(OC)cc3o2)cc1OC`: in assay [5], the pIC50 was 3.62. `CN1C(=O)CC(c2ccccc2)N=C1SCc1cn(-c2cccc([N+](=O)[O-])c2)nn1` (stereo not given) gave a pIC50 in assay [4] of 6.82.

As to `COc1ccc(NC(=O)c2ccc(NC3=C(c4ccc(OC)cc4)C(=O)NC3=O)cc2)cc1`, in assay [1], the pIC50 is 7.05.

As to `CN1C(=O)CC(c2ccccc2)N=C1SCc1cn(-c2ccccc2)nn1` (stereo not given), the pIC50 in assay [4] was 6.04.

For `COc1ccccc1-n1cc(CSC2=NC(c3ccccc3)CC(=O)N2C)nn1` (stereo not given), the pIC50 in assay [4] is 5.88. Still for that read-out and setting: next, `CN1C(=O)CC(c2ccccc2)N=C1SCc1cn(-c2ccc(C(C)(C)C)cc2)nn1` (stereo not given): 5.87.

The compound `COc1ccc(C2=C(Nc3ccc(C(=O)Nc4ccc(Cl)cc4)cc3)C(=O)NC2=O)cc1` gave a pIC50 in assay [1] of 6.72. As for `COc1ccc(-c2cc(=O)c3c(OC)c([C@H]4O[C@H](CO)[C@@H](O)[C@H](O)[C@H]4O)c(OC)cc3o2)cc1OC`, the pIC50 in assay [5] is 3.62. Turning to `O=C1NC(=O)C(c2cn(CCCO)c3ncccc23)=C1c1ccccc1C(F)(F)F`, the pIC50 in assay [6] was 7.85.

Turning to `C=CC(=O)Nc1cccc(C2=C(c3cn(C)c4ccc(F)cc34)C(=O)NC2=O)c1`, the pIC50 in assay [1] is 6.82.

`C=CC(=O)Nc1cccc(C2=C(c3cn(C)c4cc(OC)ccc34)C(=O)NC2=O)c1` gave a pIC50 in assay [1] of 6.16. On to `O=C1NC(=O)C(c2cn(CCCO)c3ncccc23)=C1c1ccccc1Cl`, for which, in assay [6], the pIC50 is 8.00. Take `O=C(CSc1nnc(Cn2c(C(F)(F)F)nc3ccccc32)o1)Nc1ccccc1`: the pIC50 in assay [1] is 6.89. In the case of `CCc1ccc(-n2cc(CSC3=NC(c4ccccc4)CC(=O)N3C)nn2)cc1` (stereo not given), the pIC50 in assay [4] was 7.03.

In turn, `C=CC(=O)Nc1cccc(C2=C(c3cn(C(C)C)c4ncccc34)C(=O)NC2=O)c1` gave a pIC50 in assay [1] of 7.47. On to `NCCCn1cc(C2=C(c3cccc4ccccc34)C(=O)NC2=O)c2cccnc21`, for which, in assay [7], the pIC50 is 7.51. On to `COc1ccccc1C1=C(c2cn(CCCO)c3ncccc23)C(=O)NC1=O`, for which the pIC50 in assay [6] was 8.40. The compound `COc1ccc(/C=C/C(O)=C/C(=O)/C=C/c2ccc(OCc3ccccc3)cc2)cc1OC` showed a pIC50 in assay [1] of 6.05.

On to `CN(C)CCCn1cc(C2=C(c3cccc4ccccc34)C(=O)NC2=O)c2cccnc21`, for which the pIC50 in assay [6] was 6.85. Turning to `COc1ccc(-c2cc(=O)c3c(OC)c([C@H]4O[C@H](C(=O)N[C@H](C)C(F)(F)F)[C@@H](O)[C@H](O)[C@H]4O)c(OC)cc3o2)cc1OC`, the pIC50 in assay [5] was 5.64.

In assay [1], `COc1ccc(NC(=O)c2ccc(NC3=C(c4ccccc4)C(=O)NC3=O)cc2)cc1` had a pIC50 of 6.92. On to `C=CC(=O)Nc1cccc(C2=C(c3cn(C)c4cc(F)ccc34)C(=O)NC2=O)c1`, for which the pIC50 in assay [1] is 6.70. Consider `COc1ccc(-c2cc(=O)c3c(OC)c([C@H]4O[C@H](C(=O)N[C@@H](C)C(F)(F)F)[C@@H](O)[C@H](O)[C@H]4O)c(OC)cc3o2)cc1OC`, for which the pIC50 in assay [5] is 6.23. In assay [1], `CC(C)n1cc(C2=C(c3cccc(NC(=O)CF)c3)C(=O)NC2=O)c2cccnc21` gave a pIC50 of 7.77. `CCc1ccc(-n2cc(CSc3nnc(Cn4c(C(F)(F)F)nc5ccccc54)o3)nn2)cc1` gave a pIC50 in assay [1] of 6.41.
